Among the test systems are SR leukemia; NCI-H522 lung; SK-OV-3 ovarian; LOX IMVI melanoma; OVCAR-5 ovarian; RPMI-8226 leukemia; SW-620 colon; SK-MEL-2 melanoma; NCI/ADR-RES ovarian; MCF7 breast.
Common to all, as to experiment: NCI anticancer screen, dose series, 48 h

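Five compound concentrations were applied to cells in 96-well plates for 48 hours; endpoints were derived by simple linear interpolation of the resulting dose-response curve. The concentration for 50% growth inhibition is given as GI50. TGI marks complete inhibition of growth.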

Take `C=C1C(=O)O[C@H]2[C@H]1CC/C(COC(=O)NCCc1c[nH]c3ccc(OC)cc13)=C\CC[C@@]1(C)O[C@@H]21`: the GI50 is 1.02 µM with SR leukemia; 1.18 µM in the assay with NCI-H522 lung; 14.1 µM in the assay with SK-OV-3 ovarian; 1.32 µM in the assay on LOX IMVI melanoma; 1.82 µM with OVCAR-5 ovarian; 1.44 µM in the assay on RPMI-8226 leukemia. Moreover, the GI50 with SW-620 colon is 1.94 µM; with SK-MEL-2 melanoma, 1.84 µM; with NCI/ADR-RES ovarian it was 7.57 µM. Besides, the TGI turned out to be 9.33 µM in the assay on SR leukemia; 2.75 µM in the assay on NCI-H522 lung; 27.2 µM in the assay with SK-OV-3 ovarian; 2.78 µM with LOX IMVI melanoma; 4 µM in the assay on OVCAR-5 ovarian; 4.74 µM with RPMI-8226 leukemia. The TGI in the assay on SW-620 colon worked out at 5.27 µM; in the assay on SK-MEL-2 melanoma, 4.18 µM; in the assay with NCI/ADR-RES ovarian, 29.2 µM.
In the case of `Cc1cc(NS(=O)(=O)c2ccc(NC(=O)c3cccc4c(Nc5ccc(S(=O)(=O)N=C(N)N)cc5)c5ccccc5nc34)cc2)no1`, the TGI with SR leukemia, in the assay with NCI-H522 lung, in the assay with SK-OV-3 ovarian, in the assay on LOX IMVI melanoma, in the assay on OVCAR-5 ovarian and in the assay with RPMI-8226 leukemia was above 100 µM throughout. In the assay on SW-620 colon, this compound showed a TGI above 100 µM.
`CN1CC(C(=O)C2C(=O)c3ccccc3C2=O)C(=O)C(=O)C(C(=O)C2C(=O)c3ccccc3C2=O)C1` (configuration not stated): the TGI in the assay on SR leukemia, in the assay on NCI-H522 lung, with SK-OV-3 ovarian, in the assay on LOX IMVI melanoma, in the assay with OVCAR-5 ovarian and in the assay on SW-620 colon was above 100 µM in each case. The TGI with SK-MEL-2 melanoma was above 100 µM.
For `O=C(C(=O)N1CC2C=CC1CC2)c1c[nH]c2ccccc12` (configuration not stated), the TGI in the assay on SR leukemia, with NCI-H522 lung, in the assay on SK-OV-3 ovarian, in the assay on LOX IMVI melanoma, with OVCAR-5 ovarian and in the assay with RPMI-8226 leukemia was above 100 µM each time. Further, the TGI in the assay on SW-620 colon and in the assay on SK-MEL-2 melanoma was above 100 µM in each case.
Turning to `C1OC1CO[C@@H]1CO[C@H]2[C@@H]1OC[C@H]2OCC1CO1` (some centres not stated), the TGI in the assay on SR leukemia, in the assay on NCI-H522 lung, in the assay on SK-OV-3 ovarian, in the assay on LOX IMVI melanoma, in the assay on OVCAR-5 ovarian and with RPMI-8226 leukemia was above 100 µM each time. Further, the TGI in the assay on SW-620 colon and in the assay with SK-MEL-2 melanoma was above 100 µM in each case.
Take `CN(C)C(=O)c1cc2cnc(Nc3ccc(-c4csc5c(=O)cc(N6CCOCC6)oc45)cc3)nc2n1C1CCCC1`: the GI50 was 0.101 µM in the assay with SR leukemia; 0.0881 µM with MCF7 breast; 0.247 µM with NCI-H522 lung; 0.478 µM in the assay with SK-OV-3 ovarian; 0.112 µM in the assay on LOX IMVI melanoma; 0.142 µM in the assay with RPMI-8226 leukemia. In addition, the GI50 in the assay on SW-620 colon is 0.153 µM; with SK-MEL-2 melanoma, 0.236 µM; in the assay with NCI/ADR-RES ovarian it was 0.375 µM. In addition, the TGI is above 80 µM with SR leukemia; 1.01 µM in the assay with MCF7 breast; 1.3 µM in the assay on NCI-H522 lung; 2.88 µM with SK-OV-3 ovarian; 0.353 µM with LOX IMVI melanoma; 0.533 µM in the assay on RPMI-8226 leukemia. The TGI is 1 µM in the assay on SW-620 colon, 0.679 µM in the assay with SK-MEL-2 melanoma and above 65.6 µM with NCI/ADR-RES ovarian.
Take `CCCCOP1(=O)C=C(C)C(=C(Cl)Cl)C(C)=C1` (configuration not stated): the TGI with SR leukemia was 29.9 µM; in the assay on NCI-H522 lung it was 11 µM; in the assay with SK-OV-3 ovarian, 49.8 µM; in the assay on LOX IMVI melanoma, 33.1 µM; in the assay with OVCAR-5 ovarian it was above 100 µM; in the assay on RPMI-8226 leukemia, above 24.4 µM. Moreover, the figures for the TGI with SW-620 colon and with SK-MEL-2 melanoma were above 40 µM and 5.11 µM, respectively.
As to `S=C1Nc2ccc(Cl)cc2C2(c3ccccc3)N3CCN=C3NN12` (configuration not stated), the GI50 in the assay on SR leukemia was 23.7 µM; with MCF7 breast, 27.4 µM; with NCI-H522 lung, 21.7 µM; in the assay with SK-OV-3 ovarian, above 100 µM; in the assay with LOX IMVI melanoma, 17.6 µM; with OVCAR-5 ovarian, 82.7 µM. Also, the GI50 was 21.7 µM in the assay on RPMI-8226 leukemia, 29.2 µM in the assay on SW-620 colon and 48.8 µM with NCI/ADR-RES ovarian. The TGI in the assay with SR leukemia is 88.8 µM; with MCF7 breast, above 100 µM; in the assay on NCI-H522 lung, 48.1 µM; with SK-OV-3 ovarian, above 100 µM; in the assay on LOX IMVI melanoma, 36.2 µM; in the assay on OVCAR-5 ovarian, above 100 µM. The TGI is 57.3 µM with RPMI-8226 leukemia, 83.5 µM in the assay on SW-620 colon and above 100 µM in the assay with NCI/ADR-RES ovarian.
For `NC(=O)C(c1ccccc1)N1CCOCC1` (configuration not stated), the TGI with SR leukemia, in the assay with NCI-H522 lung, in the assay on SK-OV-3 ovarian, with LOX IMVI melanoma, in the assay on OVCAR-5 ovarian and in the assay on RPMI-8226 leukemia was above 100 µM each time. The TGI with SW-620 colon and in the assay on SK-MEL-2 melanoma was above 100 µM in each case.
`CCN(c1ccc(Br)cc1)c1c(Br)c(=O)nc2ccccn12`: the TGI with SR leukemia, in the assay with NCI-H522 lung, in the assay on SK-OV-3 ovarian, in the assay with OVCAR-5 ovarian, in the assay with RPMI-8226 leukemia and in the assay with SW-620 colon was above 100 µM each time. In the assay with SK-MEL-2 melanoma, this compound had a TGI above 100 µM.
Regarding `C#Cc1c(C(N)=O)ncn1C1OC(COP(=O)(OCc2ccc([N+](=O)[O-])o2)N(C)CCCCCl)C(O)C1O` (configuration not stated), the GI50 was 20.1 µM in the assay with MCF7 breast; 3.78 µM in the assay on NCI-H522 lung; 77 µM in the assay with SK-OV-3 ovarian; 22.4 µM in the assay with LOX IMVI melanoma; 16.2 µM with OVCAR-5 ovarian; 0.0113 µM in the assay with RPMI-8226 leukemia. In addition, the GI50 in the assay on SW-620 colon is 41.4 µM; in the assay on SK-MEL-2 melanoma, 89.9 µM; in the assay on NCI/ADR-RES ovarian, 15.1 µM. Also, the TGI in the assay on MCF7 breast was above 100 µM; with NCI-H522 lung it was 88.1 µM; with SK-OV-3 ovarian it was above 100 µM; in the assay with LOX IMVI melanoma it was above 100 µM; in the assay on OVCAR-5 ovarian, above 100 µM; in the assay with RPMI-8226 leukemia it was above 100 µM. The TGI in the assay on SW-620 colon, in the assay on SK-MEL-2 melanoma and in the assay with NCI/ADR-RES ovarian was above 100 µM each time.
For the compound `CCSC1=C(C)N(C=NC(C)(C)C)CC1`, the TGI in the assay with SR leukemia is above 100 µM; in the assay with NCI-H522 lung, above 100 µM; in the assay on SK-OV-3 ovarian, above 100 µM; with LOX IMVI melanoma, above 100 µM; with OVCAR-5 ovarian it was above 100 µM; in the assay on SW-620 colon, 73.8 µM. Moreover, in the assay on SK-MEL-2 melanoma, the TGI is above 100 µM.

(Values after PubChem BioAssay (NCI).)
